Laboratory results taken from patent US7795291B2, “Substituted acid derivatives useful as anti-atherosclerotic, anti-dyslipidemic, anti-diabetic and anti-obesity agents and method” (Bristol-Myers Squibb Company, priority 2006, dated 2010).

Assays:
human PPARγ receptor = biological target: T1, human PPARγ receptor (Homo sapiens, UniProt P37231); experiment: GAL4-hPPARγ-LBD functional transactivation (luciferase) assay in HEK293 cells; assay type: cell-based; conditions: for Emax: HEK293, maximum activity vs maximal activity of 1 μM rosiglitazone, read-out: PPARγ % efficacy
T1 construct: transiently transfecting GAL4-hPPARα-LBD or GAL4-hPPARγ-LBD constructs; GAL4 (fusion partner); expressed in transfected cells; host or cells: HEK293 cells stably expressing 5×GAL4RE-Luciferase
T1 sequence (P37231 238-503 limits assumed): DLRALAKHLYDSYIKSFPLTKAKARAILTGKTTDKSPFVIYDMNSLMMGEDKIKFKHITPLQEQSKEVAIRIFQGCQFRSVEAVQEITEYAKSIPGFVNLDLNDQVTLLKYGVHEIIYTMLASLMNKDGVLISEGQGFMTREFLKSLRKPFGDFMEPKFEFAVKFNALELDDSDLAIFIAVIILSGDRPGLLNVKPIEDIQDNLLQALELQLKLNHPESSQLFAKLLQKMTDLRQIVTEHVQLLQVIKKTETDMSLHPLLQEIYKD
Method: (§1) In vitro PPAR agonist functional assays were performed by transiently transfecting GAL4-hPPARα-LBD or GAL4-hPPARγ-LBD constructs respectively into HEK293 (human embryonic kidney) cells stably expressing 5×GAL4RE-Luciferase. Agonist binding results in an increase in luciferase enzyme activity which can be monitored by measuring luminescence upon cell lysing and the addition of luciferin substrate. EC50 values (μM) for PPARα or γ agonist activity were calculated as the concentration of the test ligand (μM) required for the half-maximal activity in HEK293 cells. The efficacy of a test ligand is defined as its maximum activity as compared to the maximal activity of the primary standards, 100 μM fenofibric acid for PPARα and 1 μM rosiglitazone for PPARγ, reported as % efficacy.

human PPARα receptor = biological target: T2, human PPARα receptor (Homo sapiens, UniProt Q07869); experiment: GAL4-hPPARα-LBD functional transactivation (luciferase) assay in HEK293 cells; assay type: cell-based; conditions: for Emax: HEK293, maximum activity vs maximal activity of 100 μM fenofibric acid, read-out: PPARα % efficacy
T2 construct: transiently transfecting GAL4-hPPARα-LBD or GAL4-hPPARγ-LBD constructs; GAL4 (fusion partner); expressed in transfected cells; host or cells: HEK293 cells stably expressing 5×GAL4RE-Luciferase
T2 sequence (Q07869 239-466 limits assumed): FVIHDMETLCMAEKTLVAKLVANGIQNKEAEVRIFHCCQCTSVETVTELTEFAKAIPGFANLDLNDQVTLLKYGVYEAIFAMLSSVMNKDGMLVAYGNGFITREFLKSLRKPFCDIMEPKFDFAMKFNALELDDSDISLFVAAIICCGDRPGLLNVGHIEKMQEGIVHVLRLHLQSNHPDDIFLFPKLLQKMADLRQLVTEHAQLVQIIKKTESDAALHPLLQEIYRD
Method: as §1

high fat-fed hamster = experiment: High fat-fed hamster model: plasma triglyceride and cholesterol levels; assay type: in vivo, Golden Syrian Hamster (Mesocricetus auratus); conditions: 10 mg/kg orally dosed once daily for 14 days; high fat-fed male hamsters, fasted overnight
Method: It is known by one skilled in the art that the compounds of the present invention decrease plasma triglycerides and cholesterol levels at doses ≧10 mg/kg in rodent models of atherosclerosis and dyslipidemia (e.g. the high fat-fed hamster model). The typical administration of said compounds is expected to be between 0.1 to 2,000 mg/day in the clinical setting, and is preferably between 0.5 to 100 mg/day. (Reference for high fat-fed hamster model as an in vivo rodent model for anti-atheroslerosis efficacy: P-R Wang et al., Eur. Journ. of Pharm., 2001, 427, 285-293).
Male Golden Syrian Hamster (Mesocricetus auratus), 7-10 weeks of age and weighing 110-120 grams, were put on a high fat diet (D11953) for two weeks. The high fat diet was formulated by Research Diets, Inc, New Brunswick, N.J. using Purina 5001 as the base diet. Final composition (% by weight) of the diet is: 11.5% coconut oil, 11.5% corn oil, 0.5% cholesterol and 5% fructose. […] Plasma samples were obtained from hamsters fasted overnight (18 hours after last administration of compound) on day 22. The plasma triglyceride and cholesterol levels were determined and the percentage reductions in both parameters of drug-treated animals relative to vehicle-treated animals are shown in Table 2 below.

Emax (human PPARγ receptor)	Emax (human PPARα receptor)	EC50 (human PPARγ receptor; GAL4-hPPARγ-LBD in HEK293 cells, 5×GAL4RE-Luciferase)	EC50 (human PPARα receptor; GAL4-hPPARα-LBD in HEK293 cells, 5×GAL4RE-Luciferase)	Structure (SMILES)	% Reduction in Plasma Total Cholesterol vs Vehicle-control group (high fat-fed hamster)	% Reduction in Plasma Triglycerides vs Vehicle-control group (high fat-fed hamster)
83%	81%	–	–	COC(=O)N(CC(=O)O)Cc1cccc(OCc2nc(-c3ccc(Cl)cc3)oc2C)c1 [Compound 1, Glycine, N-[[3-[[2-(4-chlorophenyl)-5-methyl-4-oxazolyl]methoxy]phenyl]methyl]-N-(methoxycarbonyl)-]	−38%	−77%
67%	81%	4510 ± 1310 nM	4 ± 1 nM	COC(=O)N(CC(=O)O)Cc1cc(OCc2nc(-c3ccc(Cl)cc3)oc2C)ccc1F [Compound 2]	−60%	−85%
